The values below come from patent US20230257372A1 (CHONG KUN DANG PHARMACEUTICAL CORP., priority 2020, published 2023).

One experiment concerns the target T1, human recombinant HDAC1 (Homo sapiens, UniProt Q13547).
T1 construct: purchased Enzo Life Science, Inc. BML-SE456
The experiment in a line: HDAC1 enzyme activity inhibition (HDAC Fluorimetric Drug Discovery Kit). Format: biochemical. To be noted: human recombinant HDAC1; IC50 calculated with GraphPad Prism; read-out: HDAC1. The essentials:
(§1)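 Fluorimetric deacetylase read-out: after 30 min with Developer II following a 60 min, 30° C reaction of recombinant enzyme ([…]) with 10 μM substrate, across five-fold serial compound dilutions.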

The next experiment deals with T2, human recombinant HDAC6 (Homo sapiens, UniProt Q9UBN7).
T2 construct: purchased Calbiochem Inc. 382180
T2 sequence (Q9UBN7 1-1215): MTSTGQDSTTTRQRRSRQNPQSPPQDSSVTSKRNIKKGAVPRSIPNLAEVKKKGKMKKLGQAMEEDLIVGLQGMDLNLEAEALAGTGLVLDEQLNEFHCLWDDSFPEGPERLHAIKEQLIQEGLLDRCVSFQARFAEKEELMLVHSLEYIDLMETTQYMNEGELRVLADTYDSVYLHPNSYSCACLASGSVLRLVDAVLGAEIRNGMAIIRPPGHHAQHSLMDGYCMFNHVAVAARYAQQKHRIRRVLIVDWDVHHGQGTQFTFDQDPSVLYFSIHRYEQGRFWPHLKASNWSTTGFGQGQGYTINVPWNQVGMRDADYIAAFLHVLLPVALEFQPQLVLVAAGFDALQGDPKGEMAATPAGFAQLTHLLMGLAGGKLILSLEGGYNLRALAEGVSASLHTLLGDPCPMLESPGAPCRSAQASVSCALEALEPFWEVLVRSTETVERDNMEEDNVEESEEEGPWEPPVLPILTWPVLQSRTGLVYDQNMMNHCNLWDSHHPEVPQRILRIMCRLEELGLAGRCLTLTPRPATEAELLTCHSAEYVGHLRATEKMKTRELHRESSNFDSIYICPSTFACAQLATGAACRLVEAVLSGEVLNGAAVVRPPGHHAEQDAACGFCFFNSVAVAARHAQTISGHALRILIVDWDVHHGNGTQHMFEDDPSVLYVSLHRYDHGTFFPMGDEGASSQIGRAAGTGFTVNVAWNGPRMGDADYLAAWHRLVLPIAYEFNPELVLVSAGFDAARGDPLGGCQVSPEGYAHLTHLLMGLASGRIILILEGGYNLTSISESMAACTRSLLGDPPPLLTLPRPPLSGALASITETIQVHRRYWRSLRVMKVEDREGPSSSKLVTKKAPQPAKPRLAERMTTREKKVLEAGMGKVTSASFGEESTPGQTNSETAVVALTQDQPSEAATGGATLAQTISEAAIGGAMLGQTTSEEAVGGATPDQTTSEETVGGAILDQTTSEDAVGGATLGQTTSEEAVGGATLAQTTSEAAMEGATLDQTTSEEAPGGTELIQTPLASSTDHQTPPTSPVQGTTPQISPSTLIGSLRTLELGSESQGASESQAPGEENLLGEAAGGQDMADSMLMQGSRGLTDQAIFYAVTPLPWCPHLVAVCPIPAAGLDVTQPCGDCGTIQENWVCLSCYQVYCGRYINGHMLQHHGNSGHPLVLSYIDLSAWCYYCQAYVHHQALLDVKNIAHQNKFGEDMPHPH
In words: HDAC6 enzyme activity inhibition (HDAC Fluorimetric Drug Discovery Kit). The format is biochemical. To be noted: for HDAC6 selectivity (fold): HDAC1 IC50 / HDAC6 IC50; for pIC50: human recombinant HDAC6, IC50 calculated with GraphPad Prism. The method in brief: as §1

pIC50: −log10 of the molar value. Bounds are passed on as bounds.

T1 sequence (Q13547 whole entry): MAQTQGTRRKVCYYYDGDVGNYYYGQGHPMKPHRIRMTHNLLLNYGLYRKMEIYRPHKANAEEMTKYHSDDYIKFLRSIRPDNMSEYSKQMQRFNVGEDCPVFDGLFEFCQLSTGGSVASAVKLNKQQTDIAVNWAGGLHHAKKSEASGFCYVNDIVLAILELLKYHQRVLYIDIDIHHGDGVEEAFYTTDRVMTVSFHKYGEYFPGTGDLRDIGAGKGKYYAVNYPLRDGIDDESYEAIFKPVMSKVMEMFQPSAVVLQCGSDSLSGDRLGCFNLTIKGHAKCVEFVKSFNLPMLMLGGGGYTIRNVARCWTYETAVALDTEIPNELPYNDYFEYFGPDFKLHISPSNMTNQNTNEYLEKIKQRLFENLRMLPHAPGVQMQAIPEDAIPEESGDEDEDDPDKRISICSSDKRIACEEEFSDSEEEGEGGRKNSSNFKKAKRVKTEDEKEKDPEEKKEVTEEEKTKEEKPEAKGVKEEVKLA

`CN1CC(c2cccc(-c3cn(Cc4ccc(-c5nnc(C(F)F)o5)cc4F)nn3)c2)C1` [Compound 4460, 2-(difluoromethyl)-5-(3-fluoro-4-((4-(3-(1-methylazetidin-3-yl)phenyl)-1H-1,2,3-triazol-1-yl)methyl)phenyl)-1,3,4-oxadiazole]: the pIC50 on human recombinant HDAC1 is < 4.30. In addition, at human recombinant HDAC6, the “HDAC6 selectivity (fold)” value worked out at 148 fold and the pIC50 is 6.47.
On the same counts, the results for `CC(C)N1CC(c2cccc(-c3cn(Cc4ccc(-c5nnc(C(F)F)o5)cc4F)nn3)c2)C1` [Compound 4461, 2-(difluoromethyl)-5-(3-fluoro-4-((4-(3-(1-isopropylazetidin-3-yl)phenyl)-1H-1,2,3-triazol-1-yl)methyl)phenyl)-1,3,4-oxadiazole] are < 4.30, 759 fold and 7.18.
In the same order, the values of `Fc1cc(-c2nnc(C(F)F)o2)ccc1Cn1cc(-c2cccc(C3CN(C4COC4)C3)c2)nn1` [Compound 4462, 2-(difluoromethyl)-5-(3-fluoro-4-((4-(3-(1-(oxetan-3-yl)azetidin-3-yl)phenyl)-1H-1,2,3-triazol-1-yl)methyl)phenyl)-1,3,4-oxadiazole] are < 4.30, 540 fold and 7.03.
In the same order, the values of `O=C(Nc1cccc(-c2cn(Cc3ccc(-c4nnc(C(F)F)o4)cn3)nn2)c1)C1CNC1` [Compound 4463, N-(3-(1-((5-(5-(difluoromethyl)-1,3,4-oxadiazol-2-yl)pyridin-2-yl)methyl)-1H-1,2,3-triazol-4-yl)phenyl)azetidin-3-carboxamide] are < 4.30, 1046 fold and 7.32.
In the case of `CCN1CC(C(=O)Nc2cccc(-c3cn(Cc4ccc(-c5nnc(C(F)F)o5)cn4)nn3)c2)C1` [Compound 4464, N-(3-(1-((5-(5-(difluoromethyl)-1,3,4-oxadiazol-2-yl)pyridin-2-yl)methyl)-1H-1,2,3-triazol-4-yl)phenyl)-1-ethylazetidin-3-carboxamide], the pIC50 at human recombinant HDAC1 was < 4.30; at human recombinant HDAC6, 7.52. For the same compound, the “HDAC6 selectivity (fold)” value on human recombinant HDAC6 was 1650 fold.
In the same order, the values of `O=C(Nc1cccc(-c2cn(Cc3ccc(-c4nnc(C(F)F)o4)cn3)nn2)c1)C1CN(C2COC2)C1` [Compound 4465] are < 4.30, 7.65 and 2222 fold.
In the case of `Fc1cc(-c2nnc(C(F)F)o2)ccc1Cn1cc(-c2ccc(CN3CCC3)cc2)nn1` [Compound 4466, 2-(4-((4-(4-(azetidin-1-ylmethyl)phenyl)-1H-1,2,3-triazol-1-yl)methyl)-3-fluorophenyl)-5-(difluoromethyl)-1,3,4-oxadiazole], the pIC50 on human recombinant HDAC1 is < 4.30. For the same compound, on human recombinant HDAC6, the “HDAC6 selectivity (fold)” value worked out at 6944 fold and the pIC50 is 8.14.
In the same order, the values of `Fc1cc(-c2nnc(C(F)F)o2)ccc1Cn1cc(-c2ccc(CN3CC(F)C3)cc2)nn1` [Compound 4467, 2-(difluoromethyl)-5-(3-fluoro-4-((4-(4-((3-fluoroazetidin-1-yl)methyl)phenyl)-1H-1,2,3-triazol-1-yl)methyl)phenyl)-1,3,4-oxadiazole] are < 4.30, 2283 fold and 7.66.
On the same counts, the results for `Fc1cc(-c2nnc(C(F)F)o2)ccc1Cn1cc(-c2ccc(CNC3CCC3)cc2)nn1` [Compound 4468, N-(4-(1-(4-(5-(difluoromethyl)-1,3,4-oxadiazol-2-yl)-2-fluorobenzyl)-1H-1,2,3-triazol-4-yl)benzyl)cyclobutanamine] are < 4.30, 370 fold and 7.87.
On the same counts, the results for `Fc1cc(-c2nnc(C(F)F)o2)ccc1Cn1cc(-c2ccc(CNC3COC3)cc2)nn1` [Compound 4469, N-(4-(1-(4-(5-(difluoromethyl)-1,3,4-oxadiazol-2-yl)-2-fluorobenzyl)-1H-1,2,3-triazol-4-yl)benzyl)oxetan-3-amine] are < 4.30, 847 fold and 7.23.
As for `CN1CC(NCc2ccc(-c3cn(Cc4ccc(-c5nnc(C(F)F)o5)cc4F)nn3)cc2)C1` [Compound 4470, N-(4-(1-(4-(5-(difluoromethyl)-1,3,4-oxadiazol-2-yl)-2-fluorobenzyl)-1H-1,2,3-triazol-4-yl)benzyl)-1-methylazetidin-3-amine], the pIC50 at human recombinant HDAC1 is < 4.30. For the same compound, at human recombinant HDAC6, the “HDAC6 selectivity (fold)” value is given as 915 fold and the pIC50 is 7.26.
On the same counts, the results for `Fc1cc(-c2nnc(C(F)F)o2)ccc1Cn1cc(-c2ccc(CN3CCOCC3)cc2)nn1` [Compound 4471, 4-(4-(1-(4-(5-(difluoromethyl)-1,3,4-oxadiazol-2-yl)-2-fluorobenzyl)-1H-1,2,3-triazol-4-yl)benzyl)morpholine] are < 4.30, 1116 fold and 7.35.
Consider `Fc1cc(-c2nnc(C(F)F)o2)ccc1Cn1cc(-c2ccc(CN3CCC(F)(F)CC3)cc2)nn1` [Compound 4472, 2-(difluoromethyl)-5-(4-((4-(4-((4,4-difluoropiperidin-1-yl)methyl)phenyl)-1H-1,2,3-triazol-1-yl)methyl)-3-fluorophenyl)-1,3,4-oxadiazole], for which the pIC50 at human recombinant HDAC1 is < 4.30. Further, at human recombinant HDAC6, the “HDAC6 selectivity (fold)” value is 407 fold and the pIC50 was 6.91.
On the same counts, the results for `CN1CCN(Cc2ccc(-c3cn(Cc4ccc(-c5nnc(C(F)F)o5)cc4F)nn3)cc2)CC1` [Compound 4473, 2-(difluoromethyl)-5-(3-fluoro-4-((4-(4-((4-methylpiperazin-1-yl)methyl)phenyl)-1H-1,2,3-triazol-1-yl)methyl)phenyl)-1,3,4-oxadiazole] are < 4.30, 1253 fold and 7.40.
In the same order, the values of `CCN1CCN(Cc2ccc(-c3cn(Cc4ccc(-c5nnc(C(F)F)o5)cc4F)nn3)cc2)CC1` [Compound 4474, 2-(difluoromethyl)-5-(4-((4-(4-((4-ethylpiperazin-1-yl)methyl)phenyl)-1H-1,2,3-triazol-1-yl)methyl)-3-fluorophenyl)-1,3,4-oxadiazole] are < 4.30, 1213 fold and 7.39.
On the same counts, the results for `CC(C)N1CCN(Cc2ccc(-c3cn(Cc4ccc(-c5nnc(C(F)F)o5)cc4F)nn3)cc2)CC1` [Compound 4475, 2-(difluoromethyl)-5-(3-fluoro-4-((4-(4-((4-isopropylpiperazin-1-yl)methyl)phenyl)-1H-1,2,3-triazol-1-yl)methyl)phenyl)-1,3,4-oxadiazole] are < 4.30, 1269 fold and 7.40.
For the compound `OCc1ccc(-c2cn(Cc3ccc(-c4nnc(C(F)F)o4)cc3F)nn2)cc1` [Compound 4476, (4-(1-(4-(5-(difluoromethyl)-1,3,4-oxadiazol-2-yl)-2-fluorobenzyl)-1H-1,2,3-triazol-4-yl)phenyl)methanol], the values for the pIC50 at human recombinant HDAC1 and on human recombinant HDAC6 were < 4.30 and 7.31, respectively. Besides, at human recombinant HDAC6, the “HDAC6 selectivity (fold)” value stood at 1022 fold.
In the same order, the values of `Fc1cc(-c2nnc(C(F)F)o2)ccc1Cn1cc(-c2ccc(CNC3CCC(F)(F)CC3)cc2)nn1` [Compound 4477, N-(4-(1-(4-(5-(difluoromethyl)-1,3,4-oxadiazol-2-yl)-2-fluorobenzyl)-1H-1,2,3-triazol-4-yl)benzyl)-4,4-difluorocyclohexan-1-amine] are < 4.30, 7.60 and 2008 fold.
On the same counts, the results for `OCc1c(-c2ccccc2)nnn1Cc1ccc(-c2nnc(C(F)F)o2)cn1` [Compound 4478, (1-((5-(5-(difluoromethyl)-1,3,4-oxadiazol-2-yl)pyridin-2-yl)methyl)-4-phenyl-1H-1,2,3-triazol-5-yl)methanol] are < 4.30, 6.94 and 437 fold.
